From patent US20220218852A1, “NOVEL RADIOLABELLED CXCR4-TARGETING COMPOUNDS FOR DIAGNOSIS AND THERAPY” (PROVINCIAL HEALTH SERVICES AUTHORITY, priority 2019, published 2022)
Positions of bridges follow the written chain, without caps; N, C: chain ends. Non-standard residues stand in square brackets, D forms with d. Residues, ends and D or L forms follow the SMILES beside them. Groups on a side chain read outwards from the residue. *: point of attachment. DOTA = O=C(O)CN1CCN(CC(=O)O)CCN(CC(=O)*)CCN(CC(=O)O)CC1; 2Nal = N[C@@H](Cc1ccc2ccccc2c1)C(=O)O; Lys(iPr) = CC(C)NCCCC[C@H](N)C(=O)O

Key:
[1] = In vivo stability (plasma radio-HPLC) in male NRG mice; conditions: 5 mins
Source text: Radiolabeled peptides (10-30 MBq) was intravenously injected into male NRG mice. After a 5-min, 24-hour or 120-hour uptake period, mice were sedated/euthanized, and blood was collected. The plasma was isolated and analyzed with analytical radio-HPLC following published procedures (Lin et al., Cancer Res. 2015, 75:387-393).

[2] = system: GRANTA519 xenograft; test: Dosimetry, Human Extrapolated from Mouse Model, based on GRANTA519 xenograft mice; assay type: in vivo; conditions: Lu-177, GRANTA519 xenograft mice
Source text: The multi-time-point organ uptake obtained from biodistribution data of ^177Lu-labeled analogs was decayed to their appropriate time-point, fitted to a mono-exponential or bi-exponential model (fit chosen based on R2 and residuals) in Python (version 3.7). The area under the curve was used to compute residence times which were multiplied by model organ mass for human (NURBS model) and mouse (25 g MOBY mouse phantom) for use in OLINDA/EXM software (Hermes Medical Solution; version 2.0) that calculated dosimetry for an average mouse (Stabin et al., J Nucl Med. 2005, 46:1023-1027; Keenan et al., J Nucl Med. 2010, 51:471-476) and extrapolated to an average human male (Segars et al., J Nucl Med. 2001, 42:7; Stabin et al., J Nucl Med. 2012, 53:1807-13).

Compound: CC(C)NCCCC[C@@H]1NC(=O)[C@H](Cc2ccc(O)cc2)NC(=O)[C@H](Cc2ccccc2)NC(=O)CC[C@H](C(=O)N[C@@H](CCCCNC(C)C)C(=O)N[C@@H](CCCCNC(=O)[C@H](CCC(=O)O)NC(=O)[C@H](CCC(=O)O)NC(=O)[C@H](CCC(=O)O)NC(=O)CN2CCN(CC(=O)O)CCN(CC(=O)O)CCN(CC(=O)O)CC2)C(N)=O)NC(=O)CNC(=O)[C@H](Cc2ccc3ccccc3c2)NC(=O)[C@@H](CCCNC(=N)N)NC1=O [[^68Ga]Ga-BL02, metal not drawn] (FY[Lys(iPr)][dR][2Nal]G[dE][Lys(iPr)]K([Glu-Glu-Glu-DOTA])-NH2; lactam N-7)
- % Intact Peptide [1]: >99%

Compound: CC(C)NCCCC[C@@H]1NC(=O)[C@H](Cc2ccc(O)cc2)NC(=O)[C@H](Cc2ccccc2)NC(=O)CC[C@H](C(=O)N[C@@H](CCCCNC(C)C)C(=O)N[C@@H](CCCCNC(=O)[C@H](CCC(=O)O)NC(=O)[C@H](CCC(=O)O)NC(=O)[C@H](CCC(=O)O)NC(=O)CN2CCN(CC(=O)O)CCN(CC(=O)O)CCN(CC(=O)O)CC2)C(N)=O)NC(=O)CNC(=O)[C@H](Cc2ccc3ccccc3c2)NC(=O)[C@@H](CCCNC(=N)N)NC1=O [[^177Lu]Lu-BL02, metal not drawn] (FY[Lys(iPr)][dR][2Nal]G[dE][Lys(iPr)]K([Glu-Glu-Glu-DOTA])-NH2; lactam N-7)
- Absorbed Dose, Adrenals ([2]; Adrenals): 0.00757 mGy/MBq
- Absorbed Dose, Brain ([2]; Brain): 7.33e−05 mGy/MBq
- Absorbed Dose, Esophagus ([2]; Esophagus): 0.00043 mGy/MBq
- Absorbed Dose, Eyes ([2]; Eyes): 0.000245 mGy/MBq
- Absorbed Dose, Gallbladder Wall ([2]; Gallbladder Wall): 0.000863 mGy/MBq
- Absorbed Dose, Heart ([2]; Heart): 0.00148 mGy/MBq
- Absorbed Dose, Kidneys ([2]; Kidneys): 0.0311 mGy/MBq
- Absorbed Dose, Left colon ([2]; Left colon): 0.00141 mGy/MBq
- Absorbed Dose, Liver ([2]; Liver): 0.0185 mGy/MBq
- Absorbed Dose, Lungs ([2]; Lungs): 0.00333 mGy/MBq
- Absorbed Dose, Pancreas ([2]; Pancreas): 0.000976 mGy/MBq
- Absorbed Dose, Prostate ([2]; Prostate): 0.000284 mGy/MBq
- Absorbed Dose, Rectum ([2]; Rectum): 0.000761 mGy/MBq
- Absorbed Dose, Red Marrow ([2]; Red Marrow): 0.000343 mGy/MBq
- Absorbed Dose, Remainder of the Body ([2]; Remainder of the Body): 0.000952 mGy/MBq
- Absorbed Dose, Right colon ([2]; Right colon): 0.00095 mGy/MBq
- Absorbed Dose, Salivary Glands ([2]; Salivary Glands): 0.000254 mGy/MBq
- Absorbed Dose, Skeleton ([2]; Skeleton): 0.000444 mGy/MBq
- Absorbed Dose, Small Intestine ([2]; Small Intestine): 0.00131 mGy/MBq
- Absorbed Dose, Spleen ([2]; Spleen): 0.00859 mGy/MBq
- Absorbed Dose, Stomach Wall ([2]; Stomach Wall): 0.000464 mGy/MBq
- Absorbed Dose, Testes ([2]; Testes): 0.00245 mGy/MBq
- Absorbed Dose, Thymus ([2]; Thymus): 0.000336 mGy/MBq
- Absorbed Dose, Thyroid ([2]; Thyroid): 0.00029 mGy/MBq
- Absorbed Dose, Urin Blad ([2]; Urin Blad): 0.000269 mGy/MBq
